# pEC50: −log10 of the molar value.
# How the values were obtained:
# Assay type in all cases: cell-based
# SW480 colon cancer cells = assay: Cell viability assay (CellTiter-Blue), four days; details: Homo sapiens, 96 h; for inhibition at 10 µM: read-out: percent inhibition at 10 μM (given for EC50 of >10 μM); for pEC50: CellTiter-Blue cell viability
# Procedure, shortened: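 Approximately 2×10^3 SW480 cells per well are seeded with compound (8 points, threefold steps, top 10 μM) and incubated four days at 37 °C. CellTiter-Blue is then added for about 3 h and fluorescence read. Non-linear regression gives EC50; for values beyond 10 μM, percent inhibition at that concentration is listed.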
# [1] = test system: Wnt activity (Wnt-responsive human Sp5 promoter, TCF/LEF binding sites) in SW480 colon carcinoma cells; assay: Wnt activity screening assay: Sp5-Luc luciferase reporter gene in SW480 cells; details: for pEC50: 10-point dose-response from 10 μM, incubated overnight; for inhibition at 10 µM: given for EC50 of >10 μM, read-out: percent inhibition at 10 μM
# Procedure, shortened: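 Luminescence (BrightGlo) was normalised to DMSO-only wells and fitted with a four-parameter variable-slope model for EC50; beyond 10 μM, % inhibition at 10 μM is given. Stable Sp5-Luc SW480 reporter cells, 4,000/well in 1% FBS, were exposed overnight at 37 °C to compounds, top 10 μM, 1:3 dilutions, 0.1% DMSO.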
# [2] = test system: Primary human fibroblasts derived from IPF patients (LL29 cells) treated with TGF-β1; assay: Inhibition of the fibrotic process: αSMA staining in TGF-β1 treated fibroblasts; details: Fibroblast, 96 h, LL29 fibroblasts treated with TGF-β1, 4 days; for inhibition at 10 µM: read-out: percent inhibition in brackets beside EC50 >10 μM
# Procedure, shortened: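 Compound dilutions from 10 μM down to […] are dispensed, LL29 cells added in F12 with 1% FBS, and TGF-β1 (20 ng/mL) follows after 1 h. After 4 days, live-cell αSMA positivity is measured by immunofluorescence and normalized to TGF-β1-treated wells to derive EC50.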
smiles,measurement,setting,value
"CCC(=O)Nc1cncc(-c2ccc3[nH]nc(-c4nc5c(-c6cccc(F)c6)nccc5[nH]4)c3n2)c1 [Compound 1, N-(5-(3-(4-(3-Fluorophenyl)-1H-imidazo[4,5-c]pyridin-2-yl)-1H-pyrazolo [4,3-b]pyridin-5-yl)pyridin-3-yl)propionamide]",inhibition at 10 µM,SW480 colon cancer cells,28%
same,pEC50,SW480 colon cancer cells,< 5.00
same,pEC50,[1],< 5.00
same,inhibition at 10 µM,[1],29.8%
same,pEC50,[2],< 5.00
same,inhibition at 10 µM,[2],0%
"c1cc2[nH]c(-c3n[nH]c4ccc(-c5cn[nH]c5)nc34)nc2cn1 [Compound 651, 3-(1H-Imidazo[4,5-c]pyridin-2-yl)-5-(1H-pyrazol-4-yl)-1H-pyrazolo[4,3-b]pyridine]",inhibition at 10 µM,SW480 colon cancer cells,13.5%
same,pEC50,SW480 colon cancer cells,< 5.00
same,pEC50,[1],< 5.00
same,inhibition at 10 µM,[1],22.3%
same,pEC50,[2],< 5.00
same,inhibition at 10 µM,[2],16.4%
"c1cc(-c2ccc3[nH]nc(-c4nc5c(-c6ccncc6)nccc5[nH]4)c3n2)ccn1 [Compound 130, 5-(pyridin-4-yl)-3-(4-(pyridin-4-yl)-1H-imidazo[4,5-c]pyridin-2-yl)-1H-pyrazolo[4,3-b]pyridine]",inhibition at 10 µM,SW480 colon cancer cells,0%
same,pEC50,SW480 colon cancer cells,< 5.00
same,pEC50,[1],< 5.00
same,inhibition at 10 µM,[1],7.5%
same,pEC50,[2],< 5.00
same,inhibition at 10 µM,[2],15.3%
"O=C(Nc1cncc(-c2ccc3[nH]nc(-c4nc5c(N6CCCCC6)nccc5[nH]4)c3n2)c1)C1CC1 [Compound 188, N-(5-(3-(4-(Piperidin-1-yl)-1H-imidazo[4,5-c]pyridin-2-yl)-1H-pyrazolo [4,3-b]pyridin-5-yl)pyridin-3-yl)cyclopropanecarboxamide]",inhibition at 10 µM,SW480 colon cancer cells,10.5%
same,pEC50,SW480 colon cancer cells,< 5.00
same,pEC50,[1],< 5.00
same,inhibition at 10 µM,[1],19%
same,pEC50,[2],< 5.00
same,inhibition at 10 µM,[2],0%
"Cn1cc(-c2ccc3[nH]nc(-c4nc5c(-c6ccc(F)cc6)nccc5[nH]4)c3n2)c(CO)n1 [Compound 1128, (4-(3-(4-(4-Fluorophenyl)-1H-imidazo[4,5-c]pyridin-2-yl)-1H-pyrazolo[4,3-b]pyridin-5-yl)-1-methyl-1H-pyrazol-3-yl)methanol]",inhibition at 10 µM,SW480 colon cancer cells,9.1%
same,pEC50,SW480 colon cancer cells,< 5.00
same,pEC50,[1],< 5.00
same,inhibition at 10 µM,[1],19.6%
same,pEC50,[2],5.57
"Fc1ccccc1-c1nccc2[nH]c(-c3n[nH]c4ccc(-c5ccccn5)nc34)nc12 [Compound 84, 3-(4-(2-Fluorophenyl)-1H-imidazo[4,5-c]pyridin-2-yl)-5-(pyridin-2-yl)-1H-pyrazolo[4,3-b]pyridine]",inhibition at 10 µM,SW480 colon cancer cells,0%
same,pEC50,SW480 colon cancer cells,< 5.00
same,pEC50,[1],6.42
same,pEC50,[2],< 5.00
same,inhibition at 10 µM,[2],18.1%
"Cc1ccncc1-c1ccc2[nH]nc(-c3nc4c(-c5ccncc5)nccc4[nH]3)c2n1 [Compound 117, 5-(4-Methylpyridin-3-yl)-3-(4-(pyridin-4-yl)-1H-imidazo[4,5-c]pyridin-2-yl)-1H-pyrazolo[4,3-b]pyridine]",inhibition at 10 µM,SW480 colon cancer cells,19.6%
same,pEC50,SW480 colon cancer cells,< 5.00
same,pEC50,[1],< 5.00
same,inhibition at 10 µM,[1],28%
same,pEC50,[2],< 5.00
same,inhibition at 10 µM,[2],0%
"COc1cccc(-c2nccc3[nH]c(-c4n[nH]c5ccc(-c6cncc(O)c6)nc45)nc23)c1 [Compound 1030, 5-(3-(4-(3-Methoxyphenyl)-1H-imidazo[4,5-c]pyridin-2-yl)-1H-pyrazolo [4,3-b]pyridin-5-yl)pyridin-3-ol]",inhibition at 10 µM,SW480 colon cancer cells,6%
same,pEC50,SW480 colon cancer cells,< 5.00
same,pEC50,[1],< 5.00
same,inhibition at 10 µM,[1],14.1%
same,pEC50,[2],5.01
"O=C(CC1CCNCC1)Nc1cncc(-c2ccc3[nH]nc(-c4nc5c(-c6ccsc6)nccc5[nH]4)c3n2)c1 [Compound 673, 2-(Piperidin-4-yl)-N-(5-(3-(4-(thiophen-3-yl)-1H-imidazo[4,5-c]pyridin-2-yl)-1H-pyrazolo[4,3-b]pyridin-5-yl)pyridin-3-yl)acetamide]",inhibition at 10 µM,SW480 colon cancer cells,6.6%
same,pEC50,SW480 colon cancer cells,< 5.00
same,pEC50,[1],< 5.00
same,inhibition at 10 µM,[1],22.6%
same,pEC50,[2],5.97
"Cn1cc(-c2ccc3[nH]nc(-c4nc5c(-c6cccs6)nccc5[nH]4)c3n2)cn1 [Compound 700, 5-(1-Methyl-1H-pyrazol-4-yl)-3-(4-(thiophen-2-yl)-1H-imidazo[4,5-c]pyridin-2-yl)-1H-pyrazolo[4,3-b]pyridine]",pEC50,SW480 colon cancer cells,6.11
same,pEC50,[1],6.34
same,pEC50,[2],6.65
"FC1(F)CCN(Cc2cncc(-c3ccc4[nH]nc(-c5nc6c(-c7ccsc7)nccc6[nH]5)c4n3)c2)C1 [Compound 306, 5-(5-((3,3-difluoropyrrolidin-1-yl)methyl)pyridin-3-yl)-3-(4-(thiophen-3-yl)-1H-imidazo[4,5-c]pyridin-2-yl)-1H-pyrazolo[4,3-b]pyridine]",pEC50,SW480 colon cancer cells,5.95
same,pEC50,[1],5.99
same,pEC50,[2],5.91
"Oc1cncc(-c2ccc3[nH]nc(-c4nc5cnccc5[nH]4)c3n2)c1 [Compound 661, 5-(3-(1H-Imidazo[4,5-c]pyridin-2-yl)-1H-pyrazolo[4,3-b]pyridin-5-yl) pyridin-3-ol]",inhibition at 10 µM,SW480 colon cancer cells,13.5%
same,pEC50,SW480 colon cancer cells,< 5.00
same,pEC50,[1],< 5.00
same,inhibition at 10 µM,[1],10.7%
same,pEC50,[2],< 5.00
same,inhibition at 10 µM,[2],0%
"c1cc2[nH]c(-c3n[nH]c4ccc(C5CCNCC5)nc34)nc2c(-c2ccc3c(c2)OCO3)n1 [Compound 1108, 3-(4-(Benzo[d][1,3]dioxol-5-yl)-1H-imidazo[4,5-c]pyridin-2-yl)-5-(piperidin-4-yl)-1H-pyrazolo[4,3-b]pyridine]",inhibition at 10 µM,SW480 colon cancer cells,3.8%
same,pEC50,SW480 colon cancer cells,< 5.00
same,pEC50,[1],< 5.00
same,inhibition at 10 µM,[1],11%
same,pEC50,[2],< 5.00
same,inhibition at 10 µM,[2],43.7%
Cc1cn(-c2nccc3[nH]c(-c4n[nH]c5ccc(-c6cncc(NC(=O)CC(C)C)c6)nc45)nc23)cn1 [Compound 198],pEC50,SW480 colon cancer cells,5.07
same,pEC50,[1],5.40
same,pEC50,[2],< 5.00
same,inhibition at 10 µM,[2],4.5%
"c1cncc(-c2ccc3[nH]nc(-c4nc5cnccc5[nH]4)c3n2)c1 [Compound 256, 3-(1H-Imidazo[4,5-c]pyridin-2-yl)-5-(pyridin-3-yl)-1H-pyrazolo[4,3-b]pyridine]",inhibition at 10 µM,SW480 colon cancer cells,1.8%
same,pEC50,SW480 colon cancer cells,< 5.00
same,pEC50,[1],< 5.00
same,inhibition at 10 µM,[1],21.9%
same,pEC50,[2],< 5.00
same,inhibition at 10 µM,[2],0%
"Fc1ccc(-c2nccc3[nH]c(-c4n[nH]c5ccc(-c6cncc(CN7CCCC7)c6)nc45)nc23)cc1 [Compound 42, 3-(4-(4-Fluorophenyl)-1H-imidazo[4,5-c]pyridin-2-yl)-5-(5-(pyrrolidin-1-ylmethyl)pyridin-3-yl)-1H-pyrazolo[4,3-b]pyridine]",pEC50,SW480 colon cancer cells,5.02
same,pEC50,[1],< 5.00
same,inhibition at 10 µM,[1],28.2%
same,pEC50,[2],5.54
"O=C(Nc1cncc(-c2ccc3[nH]nc(-c4nc5c(-c6ccc(F)cc6)nccc5[nH]4)c3n2)c1)C1CCC1 [Compound 49, N-(5-(3-(4-(4-Fluorophenyl)-1H-imidazo[4,5-c]pyridin-2-yl)-1H-pyrazolo [4,3-b]pyridin-5-yl)pyridin-3-yl)cyclobutanecarboxamide]",pEC50,SW480 colon cancer cells,5.03
same,pEC50,[1],5.39
same,pEC50,[2],< 5.00
same,inhibition at 10 µM,[2],7.5%
"CCCCC(=O)Nc1cncc(-c2ccc3[nH]nc(-c4nc5c(-c6ccccn6)nccc5[nH]4)c3n2)c1 [Compound 159, N-(5-(3-(4-(Pyridin-2-yl)-1H-imidazo[4,5-c]pyridin-2-yl)-1H-pyrazolo[4,3-b]pyridin-5-yl)pyridin-3-yl)pentanamide]",inhibition at 10 µM,SW480 colon cancer cells,5.7%
same,pEC50,SW480 colon cancer cells,< 5.00
same,pEC50,[1],< 5.00
same,inhibition at 10 µM,[1],1.2%
same,pEC50,[2],5.39
"c1cc2[nH]c(-c3n[nH]c4ccc(-c5cncc(OCCN6CCCC6)c5)nc34)nc2c(-c2ccoc2)n1 [Compound 690, 3-(4-(Furan-3-yl)-1H-imidazo[4,5-c]pyridin-2-yl)-5-(5-(2-(pyrrolidin-1-yl)ethoxy)pyridin-3-yl)-1H-pyrazolo[4,3-b]pyridine]",pEC50,SW480 colon cancer cells,5.37
same,pEC50,[1],5.42
same,pEC50,[2],< 5.00
same,inhibition at 10 µM,[2],42.6%
"O=C(Nc1cncc(-c2ccc3[nH]nc(-c4nc5c(-c6ccccc6F)nccc5[nH]4)c3n2)c1)C1CCCC1 [Compound 78, N-(5-(3-(4-(2-Fluorophenyl)-1H-imidazo[4,5-c]pyridin-2-yl)-1H-pyrazolo [4,3-b]pyridin-5-yl)pyridin-3-yl)cyclopentanecarboxamide]",inhibition at 10 µM,SW480 colon cancer cells,19.8%
same,pEC50,SW480 colon cancer cells,< 5.00
same,pEC50,[1],< 5.00
same,inhibition at 10 µM,[1],14.8%
same,pEC50,[2],< 5.00
same,inhibition at 10 µM,[2],0%
"Fc1ccccc1-c1nccc2[nH]c(-c3n[nH]c4ccc(-c5cncc(CNCC6CCCC6)c5)nc34)nc12 [Compound 81, 1-Cyclopentyl-N-((5-(3-(4-(2-fluorophenyl)-1H-imidazo[4,5-c]pyridin-2-yl)-1H-pyrazolo[4,3-b]pyridin-5-yl)pyridin-3-yl)methyl)methanamine]",pEC50,SW480 colon cancer cells,5.97
same,pEC50,[1],5.95
same,pEC50,[2],5.89
